Patent US8017140B2, “Drug-delivery stent formulations for restenosis and vulnerable plaque” (Advanced Cardiovascular System, Inc., priority 2004, dated 2011)

System: thin-cap fibroatheroma (TCFA)
Test: drug-eluting stent implants in hypercholesterolemic rabbit model of human thin-cap fibroatheroma
Format: in vivo
Settings: 28 days; compared to unstented (de novo) TCFAs
Experimental: The MULTI-LINK Penta™ 13 mm was the platform for all DES and metallic stents. Both a slow release and fast release formulation of each drug were tested and the results were evaluated at 28 days. In both FIGS. 4 and 5, the test results concerning the slow release formulation were labeled with “s”, the test results concerning the fast release formulation were labeled with “f”, and the test results data concerning a formulation having both a slow and a fast release of an agent are labeled with “s+f.”

Structure (SMILES) | percent lipid area | total fibrous cap thickness
CO[C@H]1C[C@@H]2CC[C@@H](C)[C@@](O)(O2)C(=O)C(=O)N2CCCC[C@H]2C(=O)O[C@H]([C@H](C)C[C@@H]2CC[C@@H](OCCO)[C@H](OC)C2)CC(=O)[C@H](C)/C=C(\C)[C@@H](O)[C@@H](OC)C(=O)[C@H](C)C[C@H](C)/C=C/C=C/C=C/1C [everolimus, 40-O-(2-hydroxy)ethyl-rapamycin] | reduce | increase
C[C@]12CC[C@@H]3c4ccc(O)cc4CC[C@H]3[C@@H]1CC[C@@H]2O [beta-estradiol, 17-beta-estradiol] | reduce | increase
